Reference: article PMC13504986 (Nature, 2024)

Experiments:
[1] = target: T1, OR1A1 (Homo sapiens, UniProt Q9P1Q5); assay: GloSensor cAMP assay, HEK293T with RTP1S; assay type: cell-based
T1 sequence (Q9P1Q5 1-309): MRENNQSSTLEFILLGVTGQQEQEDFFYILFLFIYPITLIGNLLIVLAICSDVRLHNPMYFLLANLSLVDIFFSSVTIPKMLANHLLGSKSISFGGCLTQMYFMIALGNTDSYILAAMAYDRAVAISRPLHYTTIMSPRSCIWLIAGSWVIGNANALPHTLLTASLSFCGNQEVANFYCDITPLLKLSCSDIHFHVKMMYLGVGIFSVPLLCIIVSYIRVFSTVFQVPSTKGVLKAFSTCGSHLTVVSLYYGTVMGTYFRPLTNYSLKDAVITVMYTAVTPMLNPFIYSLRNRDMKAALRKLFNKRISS

[2] = target: T2, OR51E1 (Homo sapiens, UniProt Q8TCB6); assay: GloSensor cAMP assay, HEK293T; assay type: cell-based
T2 sequence (Q8TCB6 2-318 limits assumed): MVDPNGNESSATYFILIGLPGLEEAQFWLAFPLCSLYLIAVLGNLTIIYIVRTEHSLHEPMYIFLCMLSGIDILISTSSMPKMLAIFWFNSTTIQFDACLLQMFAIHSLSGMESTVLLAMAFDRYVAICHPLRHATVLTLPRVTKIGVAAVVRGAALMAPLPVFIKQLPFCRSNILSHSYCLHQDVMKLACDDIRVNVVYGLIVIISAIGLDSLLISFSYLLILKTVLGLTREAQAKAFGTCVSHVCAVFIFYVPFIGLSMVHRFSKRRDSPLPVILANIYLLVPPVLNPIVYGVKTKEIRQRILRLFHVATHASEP

| EC50 [1] [µM] | EC50 [2] [µM] | SMILES |
| --- | --- | --- |
| 0.513 |  | C=C(C)[C@@H]1CC=C(C)C(=O)C1 [R-carvone] |
| 38.9 |  | CC(C)[C@@H]1CC[C@@H](C)C[C@H]1O [L-menthol] |
|  | 34.7 | CCCCC(=O)O [pentanoate] |
